Results published in ChEMBL document CHEMBL3425462, “N-Arylmethylaminoquercitols, a new series of effective antidiabetic agents having α-glucosidase inhibition and antioxidant activity” (Bioorg Med Chem Lett, 2015).

Columns and labels:
[1] = Antioxidant activity of the compound assessed as DPPH radical scavenging activity at 5 mg/ml incubated in dark condition for 15 mins by colorimetric method relative to control; assay type: physicochemical; conditions: 0.25 h
Saccharomyces cerevisiae = experiment: Inhibition of baker's yeast alpha-glucosidase at 10 mg/ml relative to control
[2] = Inhibition of baker's yeast alpha-glucosidase; design: species or system Saccharomyces cerevisiae
[3] = Antioxidant activity of the compound assessed as DPPH radical scavenging activity incubated in dark condition for 15 mins by colorimetric method; assay type: physicochemical; conditions: 0.25 h

SMILES	Activity [1]	inhibition (Saccharomyces cerevisiae)	IC50 [2]	SC50 [3]
O[C@@H]1[C@@H](O)[C@H](O)C[C@H](NCCc2ccccc2)[C@@H]1O	< 20%		1350 µM	
CC(C)(C)c1cc(C=O)cc(C(C)(C)C)c1O				1.4 mM
N[C@H]1C[C@@H](O)[C@H](O)[C@@H](O)[C@H]1O	< 20%		2890 µM	
O=Cc1ccc(O)cc1 [4-HYDROXYBENZALDEHYDE]	< 20%			
C[C@H]1O[C@H](O[C@H]2[C@H](O)[C@@H](O)[C@@H](O[C@H]3[C@H](O)[C@@H](O)C(O)O[C@@H]3CO)O[C@@H]2CO)[C@H](O)[C@@H](O)[C@@H]1N[C@H]1C=C(CO)[C@@H](O)[C@H](O)[C@H]1O (stereo partly drawn) [ACARBOSE]	< 20%		480 µM	
COc1cc(C=O)ccc1O [VANILLIN]				4.9 mM

Now from value to compound:

Activity [1]	inhibition (Saccharomyces cerevisiae)	IC50 [2]	SC50 [3]	SMILES
< 20%	< 30%			O[C@@H]1[C@@H](O)[C@H](O)C[C@H](NCc2cccnc2)[C@@H]1O
		89.1 µM	0.4 mM	CC(C)(C)c1cc(CN[C@H]2C[C@@H](O)[C@H](O)[C@@H](O)[C@H]2O)cc(C(C)(C)C)c1O
< 20%		3010 µM		OC(CN[C@H]1C[C@@H](O)[C@H](O)[C@@H](O)[C@H]1O)c1ccccc1 (stereo partly drawn)
		94.4 µM	2.1 mM	COc1cc(CN[C@H]2C[C@@H](O)[C@H](O)[C@@H](O)[C@H]2O)ccc1O
< 20%		3140 µM		O[C@@H]1[C@@H](O)[C@H](O)C[C@H](NCc2ccc(Br)cc2)[C@@H]1O
< 20%	< 30%			O[C@@H]1[C@@H](O)[C@H](O)C[C@H](NCc2cccs2)[C@@H]1O
		111 µM	16.2 mM	Oc1ccc(CN[C@H]2C[C@@H](O)[C@H](O)[C@@H](O)[C@H]2O)cc1
